Measured values as given in ChEMBL document CHEMBL1134093, “Amidino benzimidazole inhibitors of bacterial two-component systems” (Bioorg Med Chem Lett, 2001).
Values after ≈ are worked out from the molar mass of the structure shown.

How the values were obtained:
[1] = test system: Staphylococcus aureus; assay: Inhibition of growth of Staphylococcus aureus ATCC 29213.; format: functional
[2] = test system: Enterococcus faecalis; assay: Inhibition of growth of Enterococcus faecalis OC 3041.; format: functional
[3] = test system: Enterococcus faecium; assay: Inhibition of growth of Vancomycin resistant Enterococcus faecium (VRE) OC 3312.
[4] = test system: Staphylococcus aureus; assay: Inhibition of growth of methicillin resistant Staphylococcus aureus MRSA OC 2089.; format: functional
[5] = target: T1, KinA/Spo0F (sporulation kinase A/sporulation initiation phosphotransferase F) (Bacillus subtilis (strain 168), UniProt P06628+P16497); assay: Inhibition of KinA/Sp0F system two component (TCS) from Bacillus subtilis.; format: protein assay
T1 sequence (P06628 whole entry): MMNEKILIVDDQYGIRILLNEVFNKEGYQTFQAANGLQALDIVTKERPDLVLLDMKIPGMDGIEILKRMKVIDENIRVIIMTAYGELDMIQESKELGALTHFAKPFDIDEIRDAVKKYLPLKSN
T1 sequence (P16497 whole entry): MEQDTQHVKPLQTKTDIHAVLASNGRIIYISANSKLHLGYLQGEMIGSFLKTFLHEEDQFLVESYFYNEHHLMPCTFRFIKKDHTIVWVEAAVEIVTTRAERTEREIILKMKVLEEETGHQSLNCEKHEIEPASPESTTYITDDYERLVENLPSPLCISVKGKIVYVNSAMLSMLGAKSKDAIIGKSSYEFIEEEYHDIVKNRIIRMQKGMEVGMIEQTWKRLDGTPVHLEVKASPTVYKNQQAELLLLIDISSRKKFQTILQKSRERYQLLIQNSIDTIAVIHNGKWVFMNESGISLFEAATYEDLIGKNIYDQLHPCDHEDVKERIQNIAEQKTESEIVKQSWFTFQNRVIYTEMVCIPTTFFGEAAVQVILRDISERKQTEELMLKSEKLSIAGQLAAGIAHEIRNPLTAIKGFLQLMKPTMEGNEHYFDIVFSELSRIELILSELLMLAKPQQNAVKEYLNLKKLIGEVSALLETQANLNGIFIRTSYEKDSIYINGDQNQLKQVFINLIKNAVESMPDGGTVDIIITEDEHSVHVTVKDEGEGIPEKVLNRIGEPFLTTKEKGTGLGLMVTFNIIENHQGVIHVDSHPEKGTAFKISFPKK

[6] = test system: Staphylococcus aureus; assay: Compound was evaluated for inhibition of growth of Staphylococcus aureus ATCC 29213; format: functional
[7] = test system: Staphylococcus aureus; assay: Compound was evaluated for inhibition of growth of methicillin resistant Staphylococcus aureus MRSA OC 2089; format: functional
[8] = target: T1, KinA/Spo0F (sporulation kinase A/sporulation initiation phosphotransferase F); assay: Inhibition of KinA/Sp0F system two component system (TCS) from Bacillus subtilis; format: protein assay

Structure (SMILES)	MIC [1]	MIC [2]	MIC [3]	MIC [4]	IC50 [5]	MIC [6]	MIC [7]	IC50 [8]
COc1c(-c2nc3cc(C(=N)N)ccc3[nH]2)cc(C(C)(C)C)cc1C(C)(C)C	4 µg/mL (≈ 10.6 µM)	8 µg/mL (≈ 21.1 µM)	4 µg/mL (≈ 10.6 µM)	4 µg/mL (≈ 10.6 µM)				
N=C(N)c1ccc2[nH]c(-c3ccc(N(c4ccccc4)c4ccccc4)cc3)nc2c1	4 µg/mL (≈ 9.91 µM)	4 µg/mL (≈ 9.91 µM)	4 µg/mL (≈ 9.91 µM)	16 µg/mL (≈ 39.7 µM)	17 µM			
N=C(N)c1ccc2[nH]c(-c3ccccc3)nc2c1					> 500 µM			
CC(C)(C)c1cccc(-c2nc3cc(C(=N)N)ccc3[nH]2)c1					163 µM			
CC(C)(C)c1ccc(O)c(-c2nc3cc(C(=N)N)ccc3[nH]2)c1	8 µg/mL (≈ 25.9 µM)	16 µg/mL (≈ 51.9 µM)	16 µg/mL (≈ 51.9 µM)	8 µg/mL (≈ 25.9 µM)				
CC(C)(C)c1cccc(-c2nc3cc(C(=N)N)ccc3[nH]2)c1O	1 µg/mL (≈ 3.24 µM)	2 µg/mL (≈ 6.49 µM)	2 µg/mL (≈ 6.49 µM)	1 µg/mL (≈ 3.24 µM)	6 µM			
N=C(N)c1ccc2nc(-c3ccc(Oc4ccccc4)cc3)oc2c1					49 µM			
N=C(N)c1ccc2cc(-c3ccc(Oc4ccccc4)cc3)[nH]c2c1	4 µg/mL (≈ 12.2 µM)	4 µg/mL (≈ 12.2 µM)	4 µg/mL (≈ 12.2 µM)	4 µg/mL (≈ 12.2 µM)	7.7 µM			
CC(C)(C)c1cc(-c2nc3cc(C(=N)N)ccc3[nH]2)cc(C(C)(C)C)c1	2 µg/mL (≈ 5.74 µM)	4 µg/mL (≈ 11.5 µM)	4 µg/mL (≈ 11.5 µM)	4 µg/mL (≈ 11.5 µM)	25 µM			
N=C(N)c1ccc2nc(-c3ccc(-c4ccccc4)cc3)[nH]c2c1					88 µM			
CC(C)(C)c1cc(-c2nc3cc(C(=N)N)ccc3[nH]2)c(O)c(C(C)(C)C)c1	1 µg/mL (≈ 2.74 µM)	2 µg/mL (≈ 5.49 µM)	1 µg/mL (≈ 2.74 µM)	2 µg/mL (≈ 5.49 µM)	12 µM			
COC(=O)c1ccc2[nH]c(-c3cc(C(C)(C)C)cc(C(C)(C)C)c3O)nc2c1					380 µM			
CC(C)(C)c1cc(-c2nc3cc(C4=NCCN4)ccc3[nH]2)c(O)c(C(C)(C)C)c1	1 µg/mL (≈ 2.56 µM)	1 µg/mL (≈ 2.56 µM)	1 µg/mL (≈ 2.56 µM)	1 µg/mL (≈ 2.56 µM)	10 µM			
N=C(N)c1ccc2nc(-c3ccc(Oc4ccccc4)cc3)[nH]c2c1		16 µg/mL (≈ 48.7 µM)	16 µg/mL (≈ 48.7 µM)			8 µg/mL (≈ 24.4 µM)	16 µg/mL (≈ 48.7 µM)	
CC(C)(C)c1cc(-c2nc3cc(C(=N)N)ccc3o2)c(O)c(C(C)(C)C)c1	1 µg/mL (≈ 2.74 µM)	1 µg/mL (≈ 2.74 µM)	1 µg/mL (≈ 2.74 µM)	1 µg/mL (≈ 2.74 µM)	14 µM			
N=C(N)c1ccc2oc(-c3ccc(Oc4ccccc4)cc3)nc2c1					138 µM			
N=C(N)c1ccc(Oc2ccc(-c3cc4ccc(C(=N)N)cc4[nH]3)cc2)cc1	1 µg/mL (≈ 2.71 µM)	1 µg/mL (≈ 2.71 µM)	0.5 µg/mL (≈ 1.35 µM)	0.5 µg/mL (≈ 1.35 µM)				31 µM
Cc1onc(-c2ccccc2)c1C(=O)N[C@@H]1C(=O)N2[C@@H]1SC(C)(C)[C@@H]2C(=O)O [OXACILLIN]	0.25 µg/mL (≈ 0.623 µM)	16 µg/mL (≈ 39.9 µM)	> 64 µg/mL	> 64 µg/mL				
CC(C)(N)CNC(=O)c1ccc2[nH]c(-c3cc(C(C)(C)C)cc(C(C)(C)C)c3O)nc2c1					10 µM			
CC(C)(C)c1cc(-c2nc3ccc(C(=N)N)cc3o2)c(O)c(C(C)(C)C)c1	2 µg/mL (≈ 5.47 µM)	2 µg/mL (≈ 5.47 µM)	1 µg/mL (≈ 2.74 µM)	2 µg/mL (≈ 5.47 µM)	15.4 µM			
Cn1c(-c2ccc(Oc3ccccc3)cc2)nc2cc(C(=N)N)ccc21	16 µg/mL (≈ 46.7 µM)	> 64 µg/mL	32 µg/mL (≈ 93.5 µM)	32 µg/mL (≈ 93.5 µM)	44 µM			
